pIC50: −log10 of the molar value.
Key:
[1] = Binding affinity to human RFC expressed in Chinese hamster PC43-10 cells assessed as antiproliferative activity measured as reduction in cell growth after 96 hrs by Cell-Titer Blue assay
[2] = Binding affinity to human FRalpha expressed in Chinese hamster RT16 cells assessed as antiproliferative activity measured as reduction in cell growth after 96 hrs by Cell-Titer Blue assay
[3] = Binding affinity to human PCFT expressed in Chinese hamster R2/PCFT4 cells assessed as antiproliferative activity measured as reduction in cell growth after 96 hrs by Cell-Titer Blue assay

| Compound | pIC50 [1] | pIC50 [2] | pIC50 [3] |
| --- | --- | --- | --- |
| CN(Cc1cc2c(=O)[nH]c(N)nc2[nH]1)C(=O)c1ccc(C(=O)N[C@@H](CCC(=O)O)C(=O)O)s1 | < 6.00 | 8.11 | < 6.00 |
| CN(Cc1cc2c(=O)[nH]c(N)nc2[nH]1)S(=O)(=O)c1ccc(C(=O)N[C@@H](CCC(=O)O)C(=O)O)cc1 | < 6.00 | < 6.00 | < 6.00 |
| CN(Cc1cc2c(=O)[nH]c(N)nc2[nH]1)C(=O)c1ccc(C(=O)N[C@@H](CCC(=O)O)C(=O)O)cc1 | < 6.00 | – | 7.31 |
| CN(Cc1cc2c(=O)[nH]c(N)nc2[nH]1)C(=O)c1cccc(C(=O)N[C@@H](CCC(=O)O)C(=O)O)c1 | < 6.00 | 8.74 | 6.13 |

The remaining lines, values ahead:

| pIC50 [1] | pIC50 [2] | pIC50 [3] | Compound |
| --- | --- | --- | --- |
| < 6.00 | 6.06 | < 6.00 | CN(Cc1cc2c(=O)[nH]c(N)nc2[nH]1)C(=O)c1cc(C(=O)N[C@@H](CCC(=O)O)C(=O)O)cs1 |
| < 6.00 | < 6.00 | < 6.00 | CN(Cc1cc2c(=O)[nH]c(N)nc2[nH]1)C(=O)c1csc(C(=O)N[C@@H](CCC(=O)O)C(=O)O)c1 |

— BindingDB's records for doi:10.1016/j.bmc.2019.115125 (Duquesne University, 2019)
